Reference: ChEMBL document CHEMBL4819127, “Syntheses and antimicrobial activities of ogipeptin derivatives” (Bioorg Med Chem Lett, 2021)
Converted amounts (≈) assume the structure as drawn.

Tests used:
Klebsiella pneumoniae [1] = assay: Antibacterial activity against Klebsiella pneumoniae ATCC 10031 assessed as bacterial growth inhibition; format: functional
Acinetobacter baumannii [2] = assay: Antibacterial activity against Acinetobacter baumannii ATCC 19606 assessed as bacterial growth inhibition; format: functional; details: ATCC 19606 = CIP 70.34 = JCM 6841
Escherichia coli = assay: Antibacterial activity against Escherichia coli ATCC 47076 assessed as bacterial growth inhibition; format: functional
Pseudomonas aeruginosa [3] = assay: Antibacterial activity against Pseudomonas aeruginosa ATCC 15692 assessed as bacterial growth inhibition; format: functional
HepG2 = assay: Cytotoxicity against human HepG2 cells; format: functional
Pseudomonas aeruginosa [4] = assay: Antibacterial activity against Pseudomonas aeruginosa IHMA 1375891 assessed as bacterial growth inhibition; format: functional
Pseudomonas aeruginosa [5] = assay: Antibacterial activity against Pseudomonas aeruginosa ATCC 27853 assessed as bacterial growth inhibition; format: functional
Acinetobacter baumannii [6] = assay: Antibacterial activity against Acinetobacter baumannii IHMA 1312713 assessed as bacterial growth inhibition; format: functional
Klebsiella pneumoniae [7] = assay: Antibacterial activity against Klebsiella pneumoniae IHMA 1387833 assessed as bacterial growth inhibition; format: functional
[8] = Cytotoxicity against HEK293 cells; format: cell-based; details: human, HEK293 cells
Klebsiella pneumoniae [9] = assay: Antibacterial activity against Klebsiella pneumoniae ATCC 700721 assessed as bacterial growth inhibition; format: functional
Klebsiella pneumoniae [10] = assay: Antibacterial activity against Klebsiella pneumoniae JCM 1662 assessed as bacterial growth inhibition; format: functional

Molecule	MIC (Klebsiella pneumoniae [1]) [µg/mL]	MIC (Acinetobacter baumannii [2]) [µg/mL]	MIC (Escherichia coli) [µg/mL]	MIC (Pseudomonas aeruginosa [3]) [µg/mL]	CC50 (HepG2) [µM]	MIC (Pseudomonas aeruginosa [4]) [µg/mL]	MIC (Pseudomonas aeruginosa [5]) [µg/mL]	MIC (Acinetobacter baumannii [6]) [µg/mL]	MIC (Klebsiella pneumoniae [7]) [µg/mL]	CC50 [8] [µM]	MIC (Klebsiella pneumoniae [9]) [µg/mL]	MIC (Klebsiella pneumoniae [10]) [µg/mL]
C/C=C1\NC(=O)C(NC(=O)CCCCCCCCC(=O)OCc2ccccc2)C(O)CNC(=O)C(C(O)CN)NC(=O)C(C(O)CN)NC(=O)[C@H](CCCNC(=N)N)NC(=O)[C@H](CC(C)C)NC(=O)[C@H](CCN)NC1=O (some centres undefined)	8 (≈ 7.44 µM)	4 (≈ 3.72 µM)	9 (≈ 8.37 µM)	16 (≈ 14.9 µM)	> 64	256 (≈ 238 µM)	16 (≈ 14.9 µM)	128 (≈ 119 µM)	> 256	> 64	8 (≈ 7.44 µM)	16 (≈ 14.9 µM)
C/C=C1\NC(=O)C(NC(=O)[C@H]2CC[C@H](CNC(=O)OCc3ccccc3)CC2)C(O)CNC(=O)C(C(O)CN)NC(=O)C(C(O)CN)NC(=O)[C@H](CCCNC(=N)N)NC(=O)[C@H](CC(C)C)NC(=O)[C@H](CCN)NC1=O (some centres undefined)	32 (≈ 29.8 µM)	256 (≈ 238 µM)	8 (≈ 7.45 µM)	> 256	> 64	> 256	8 (≈ 7.45 µM)	> 256	> 256	> 64	> 256	> 256
C/C=C1\NC(=O)C(NC(=O)Cc2ccc(NC(=O)Nc3c(C)cccc3C)c(Cl)c2)C(O)CNC(=O)C(C(O)CN)NC(=O)C(C(O)CN)NC(=O)[C@H](CCCNC(=N)N)NC(=O)[C@H](CC(C)C)NC(=O)[C@H](CCN)NC1=O (some centres undefined)	128 (≈ 115 µM)	> 256	4 (≈ 3.59 µM)	> 256	> 64	> 256	128 (≈ 115 µM)	> 256	> 256	> 64	> 256	> 256
C/C=C1\NC(=O)C(NC(=O)c2cn(-c3ccccc3)nc2-c2ccc(Cl)cc2)C(O)CNC(=O)C(C(O)CN)NC(=O)C(C(O)CN)NC(=O)[C@H](CCCNC(=N)N)NC(=O)[C@H](CC(C)C)NC(=O)[C@H](CCN)NC1=O (some centres undefined)	4 (≈ 3.7 µM)	8 (≈ 7.4 µM)	4 (≈ 3.7 µM)	128 (≈ 118 µM)	> 64	128 (≈ 118 µM)	8 (≈ 7.4 µM)	64 (≈ 59.2 µM)	> 256	> 64	> 256	> 256
C/C=C1\NC(=O)C(NC(=O)C2CCCN(C(=O)c3ccc(Cl)c(Cl)c3)C2)C(O)CNC(=O)C(C(O)CN)NC(=O)C(C(O)CN)NC(=O)[C@H](CCCNC(=N)N)NC(=O)[C@H](CC(C)C)NC(=O)[C@H](CCN)NC1=O (some centres undefined)	> 256	> 256	8 (≈ 7.37 µM)	> 256	> 64	> 256	32 (≈ 29.5 µM)	> 256	> 256	> 64	> 256	> 256
C/C=C1\NC(=O)C(NC(=O)Cc2c(C)n(C(=O)c3ccc(Cl)cc3)c3ccc(OC)cc23)C(O)CNC(=O)C(C(O)CN)NC(=O)C(C(O)CN)NC(=O)[C@H](CCCNC(=N)N)NC(=O)[C@H](CC(C)C)NC(=O)[C@H](CCN)NC1=O (some centres undefined)	4 (≈ 3.51 µM)	32 (≈ 28.1 µM)	2 (≈ 1.75 µM)	32 (≈ 28.1 µM)	> 64	64 (≈ 56.1 µM)	8 (≈ 7.01 µM)	> 256	> 256	> 64	> 256	> 256
C/C=C1\NC(=O)C(NC(=O)c2ccc(-c3cc(-c4ccc(OCCCCC)cc4)on3)cc2)C(O)CNC(=O)C(C(O)CN)NC(=O)C(C(O)CN)NC(=O)[C@H](CCCNC(=N)N)NC(=O)[C@H](CC(C)C)NC(=O)[C@H](CCN)NC1=O (some centres undefined)	8 (≈ 7.05 µM)	16 (≈ 14.1 µM)	8 (≈ 7.05 µM)	64 (≈ 56.4 µM)	35	128 (≈ 113 µM)	16 (≈ 14.1 µM)	32 (≈ 28.2 µM)	256 (≈ 226 µM)		128 (≈ 113 µM)	256 (≈ 226 µM)
COLISTIN	1	2	1	2	> 64	64	2	8	32		1	4
